Source: paper PMC7029851, “Antibacterial activity of novel dual bacterial DNA type II topoisomerase inhibitors” (PLoS ONE, 2020)
In brackets after ≈: the same amount, converted by molar mass. Structures can show the parent of a compound that is named as a salt. Where two headings read alike, the source gives them in different places.

Legend:
[1] = tested on: E. faecalis clinical isolates (n = 12) vanA (6)/vanB (6); experiment: MIC, multidrug-resistant clinical isolates; format: cell-based; conditions: for MIC: read-out: MIC range
Protocol: (§1) The bacterial reference strains used in this study were purchased from ATCC (American Type Culture Collection) via LGC Standards (Middlesex, UK). […] Clinical MDR isolates were provided by Aptuit, the IHMA Europa Sàrl repository (Epalinges, Switzerland) and the Statens Serum Institute (Copenhagen, Denmark).
(§2) MICs were determined by the broth microdilution method (the agar dilution method was used only for N. gonorrhoeae) according to CLSI guidelines.
(§3) The results obtained using clinical isolates are reported as MIC50 and MIC90 values.

[2] = tested on: E. faecium clinical isolates (n = 12) vanA (6)/vanB (6); experiment: MIC, multidrug-resistant clinical isolates; format: cell-based; conditions: for MIC: read-out: MIC range
Protocol: as §1, §2, §3

[3] = tested on: E. coli clinical isolates (n = 36); experiment: MIC, multidrug-resistant clinical isolates; format: cell-based, Escherichia coli; conditions: E. coli MDR clinical isolates (n = 36)
Protocol: as §1, §2, §3

[4] = tested on: N. gonorrhoeae clinical isolates (n = 38); experiment: microbe, parasite or virus in culture; format: cell-based, Neisseria gonorrhoeae
Protocol: as §1, §2, §3

E. coli ATCC 25922 = experiment: Minimal bactericidal concentration; format: cell-based, Escherichia coli; conditions: Escherichia coli, ATCC25922, ≥99.9% reduction of inoculum
Protocol: (§4) Minimal bactericidal concentrations (MBCs) were determined according to the procedure described by Knapp. Viable counts were performed after plates were incubated at 37°C for 24 hours. The MBC was defined as the lowest concentration that reduced the viability of the initial bacterial inoculum by ≥99.9%.

S. aureus ATCC 29213 [5] = experiment: Minimal bactericidal concentration; format: cell-based, Staphylococcus aureus; conditions: Staphylococcus aureus, ATCC29213, ≥99.9% reduction of inoculum
Protocol: as §4

S. aureus BAA-1720 = experiment: Minimal bactericidal concentration; format: cell-based, Staphylococcus aureus; conditions: Staphylococcus aureus, BAA1720, ≥99.9% reduction of inoculum
Protocol: as §4

S. aureus ATCC BAA-1720 = experiment: Time-kill assay; format: cell-based, Staphylococcus aureus; conditions: 1× to 4× MIC, over 24 hours
Protocol: Time-kill experiments were performed according to the procedure reported by Knapp. […] A drug-free control was included in each experiment. The bacterial cultures were standardized to obtain an initial inoculum that ranged from 5×10^5 to 5×10^6 CFU/ml. The cultures were incubated at 37°C in a shaking bath. At 0, 2, 4, 8 and 24-hour intervals, viable counts were performed by spotting (in triplicate) 10 μl aliquots of suitable dilutions of the cultures onto Mueller-Hinton agar (MHA, Oxoid, Basingstoke, UK) plates. After incubation at 37°C for 24 hours, the bactericidal activity, namely, the ability to reduce the initial inoculum by 3 log10 CFU/ml, was assessed for each tested concentration over time.

S. aureus ATCC 29213 [6] = experiment: Post-antibiotic effect (PAE); format: cell-based, Staphylococcus aureus
Protocol: A drug-free control was included in each experiment. After being exposed to the drug for 1 hour, viable counts were conducted in triplicate by spotting aliquots (10 μl) of suitable dilutions onto MHA plates. The drugs were removed by diluting the bacterial cultures (1:1000) in Cation-Adjusted Mueller-Hinton Broth (CAMHB; Sigma-Aldrich). The diluted cultures were incubated in a shaking bath at 37°C. To monitor the ongoing suppression of bacterial growth over time (5 hours), aliquots from each broth culture were periodically collected, diluted and plated to perform subsequent viable counts (in triplicate).

[7] = tested on: C. difficile clinical isolates (n = 21); experiment: MIC, multidrug-resistant clinical isolates; format: cell-based, Clostridium difficile; conditions: Clostridioides difficile; for MIC: read-out: MIC range
Protocol: as §1, §2, §3

C. difficile ATCC 700057 = experiment: MIC, broth microdilution; format: cell-based, Clostridium difficile; conditions: Clostridioides difficile, ATCC700057
Protocol: MICs were determined by the broth microdilution method (the agar dilution method was used only for N. gonorrhoeae) according to CLSI guidelines. […] The MIC values of antibiotics used in clinical practice were interpreted according to the susceptibility interpretive criteria reported in the appropriate CLSI Tables (M100-S25, CLSI, 2015).

[8] = tested on: A. baumannii clinical isolates (n = 10); experiment: microbe, parasite or virus in culture; format: cell-based, Acinetobacter baumannii; conditions: Acinetobacter baumannii
Protocol: as §1, §2, §3

[9] = tested on: S. aureus clinical isolates (n = 10); experiment: microbe, parasite or virus in culture; format: cell-based, Staphylococcus aureus
Protocol: as §1, §2, §3

[10] = E. faecalis clinical isolates (n = 12), vanA (6)/vanB (6)
[11] = E. faecium clinical isolates (n = 12), vanA (6)/vanB (6)
[12] = Escherichia coli, read-out: MIC50
[13] = Escherichia coli, read-out: MIC90
[14] = C. difficile clinical isolates (n = 21), read-out: MIC50
[15] = C. difficile clinical isolates (n = 21), read-out: MIC90
[16] = C. difficile clinical isolates (n = 21)

Compound: teicoplanin [reference compound]
- MIC50 [1, 10]: >64 µg/mL
- MIC90 [1, 10]: >64 µg/mL
- MIC50 [2, 11]: 1 µg/mL
- MIC90 [2, 11]: 64 µg/mL

Compound: C[C@H]1COc2c(N3CCN(C)CC3)c(F)cc3c(=O)c(C(=O)O)cn1c23 [levofloxacin]
- MIC range [3]: 0.03 to 32 µg/mL
- MIC50 [3, 12]: 4 µg/mL (≈ 11.1 µM)
- MIC90 [3, 13]: 16 µg/mL (≈ 44.3 µM)

Compound: CO/N=C(\C(=O)N[C@@H]1C(=O)N2C(C(=O)O)=C(CSc3nc(=O)c(=O)[nH]n3C)CS[C@H]12)c1csc(N)n1 [ceftriaxone, ceftriaxone sodium, reference compound]
- MIC range [4]: ≤0.002 to 0.12 µg/mL
- MIC50 ([4]; Neisseria gonorrhoeae): 0.012 µg/mL
- MIC90 ([4]; Neisseria gonorrhoeae): 0.094 µg/mL
- MIC range [3]: 0.03 to 32 µg/mL
- MIC50 [3, 12]: 1 µg/mL
- MIC90 [3, 13]: 32 µg/mL

Compound: CN(C)[C@@H]1C(O)=C(C(N)=O)C(=O)[C@@]2(O)C(O)=C3C(=O)c4c(O)cccc4[C@@](C)(O)[C@H]3C[C@@H]12 [tetracycline, tetracycline hydrochloride]
- MIC50 [3, 12]: 16 µg/mL
- MIC90 [3, 13]: > 64 µg/mL

Compound: CCCCCCCCCC(=O)N[C@@H](Cc1c[nH]c2ccccc12)C(=O)N[C@H](CC(N)=O)C(=O)N[C@@H](CC(=O)O)C(=O)N[C@@H]1C(=O)NCC(=O)N[C@@H](CCCN)C(=O)N[C@@H](CC(=O)O)C(=O)N[C@H](C)C(=O)N[C@@H](CC(=O)O)C(=O)NCC(=O)N[C@H](CO)C(=O)N[C@@H]([C@H](C)CC(=O)O)C(=O)N[C@@H](CC(=O)c2ccccc2N)C(=O)O[C@@H]1C [daptomycin, reference compound]
- MIC50 ([1]; Enterococcus faecalis): 1 µg/mL (≈ 0.617 µM)
- MIC90 ([1]; Enterococcus faecalis): 1 µg/mL (≈ 0.617 µM)
- MIC ([1]; Enterococcus faecalis): 0.5 to 2 µg/mL (≈ 0.309 to 1.23 µM)
- MIC50 ([2]; Enterococcus faecium): 4 µg/mL (≈ 2.47 µM)
- MIC90 ([2]; Enterococcus faecium): 4 µg/mL (≈ 2.47 µM)
- MIC ([2]; Enterococcus faecium): 2 to 4 µg/mL (≈ 1.23 to 2.47 µM)

Compound: CC1(C)S[C@@H]2[C@H](NC(=O)Cc3ccccc3)C(=O)N2[C@H]1C(=O)O [penicillin, penicillin G potassium, reference compound]
- MIC50 ([1]; Enterococcus faecalis): 4 µg/mL
- MIC90 ([1]; Enterococcus faecalis): 8 µg/mL
- MIC ([1]; Enterococcus faecalis): 2 to 16 µg/mL
- MIC50 ([2]; Enterococcus faecium): > 64 µg/mL
- MIC90 ([2]; Enterococcus faecium): > 64 µg/mL
- MIC ([2]; Enterococcus faecium): > 64 µg/mL

Compound: O=C(O)c1cn(C2CC2)c2cc(N3CCNCC3)c(F)cc2c1=O [ciprofloxacin, Ciprofloxacin hydrochloride, reference compound]
- MBC (E. coli ATCC 25922): 0.016 µg/mL
- MBC (S. aureus ATCC 29213 [5]): 1 µg/mL
- MBC (S. aureus BAA-1720): 256 µg/mL
- Bactericidal activity in time-kill (reduction of 3 log10 CFU/ml) (S. aureus ATCC BAA-1720): no bactericidal effect
- PAE (S. aureus ATCC 29213 [6]; 1-hour exposure at 1× and 4× MIC): 25 min
- PAE (S. aureus ATCC 29213 [6]; 1-hour exposure at 16× MIC): 35 min

Compound: CC(=O)NC[C@H]1CN(c2ccc(N3CCOCC3)c(F)c2)C(=O)O1 [linezolid, reference compound]
- MIC50 ([1]; Enterococcus faecalis): 2 µg/mL (≈ 5.93 µM)
- MIC90 ([1]; Enterococcus faecalis): 2 µg/mL (≈ 5.93 µM)
- MIC ([1]; Enterococcus faecalis): 1 to 2 µg/mL (≈ 2.96 to 5.93 µM)
- MIC50 ([2]; Enterococcus faecium): 2 µg/mL (≈ 5.93 µM)
- MIC90 ([2]; Enterococcus faecium): 2 µg/mL (≈ 5.93 µM)
- MIC ([2]; Enterococcus faecium): 2 µg/mL (≈ 5.93 µM)

Compound: CC1(C)S[C@@H]2[C@H](NC(=O)[C@H](N)c3ccccc3)C(=O)N2[C@H]1C(=O)O [ampicillin, reference compound]
- MIC50 ([1]; Enterococcus faecalis): 2 µg/mL (≈ 5.72 µM)
- MIC90 ([1]; Enterococcus faecalis): 2 µg/mL (≈ 5.72 µM)
- MIC ([1]; Enterococcus faecalis): 1 to 4 µg/mL (≈ 2.86 to 11.4 µM)
- MIC50 ([2]; Enterococcus faecium): > 64 µg/mL
- MIC90 ([2]; Enterococcus faecium): > 64 µg/mL
- MIC ([2]; Enterococcus faecium): > 64 µg/mL
- MIC50 [3, 12]: > 64 µg/mL
- MIC90 [3, 13]: > 64 µg/mL

Compound: Cc1ncc([N+](=O)[O-])n1CCO [metronidazole, reference compound]
- MIC50 [7, 14]: 0.5 µg/mL (≈ 2.92 µM)
- MIC90 [7, 15]: 1 µg/mL (≈ 5.84 µM)
- MIC [7, 16]: 0.25 to 2 µg/mL (≈ 1.46 to 11.7 µM)
- MIC (C. difficile ATCC 700057): 0.25 µg/mL (≈ 1.46 µM)

Compound: CNC(C)C1CCC(N)C(OC2C(N)CC(N)C(OC3OCC(C)(O)C(NC)C3O)C2O)O1 (stereo not drawn) [gentamicin, gentamicin sulfate]
- MIC50 [3, 12]: 2 µg/mL
- MIC90 [3, 13]: 32 µg/mL

Compound: C[C@@H](O)[C@H]1C(=O)N2C(C(=O)O)=C(S[C@@H]3CN[C@H](C(=O)N(C)C)C3)[C@H](C)[C@H]12 [meropenem, reference compound]
- MIC50 [8]: 8 µg/mL (≈ 20.9 µM)
- MIC90 [8]: ≥ 8 µg/mL

Compound: colistin sulfate
- MIC50 [3]: 0.5 µg/mL
- MIC90 [3]: 0.5 µg/mL

Compound: CCC[C@@H]1C[C@@H](C(=O)N[C@@H]([C@H]2O[C@H](SC)[C@H](O)[C@@H](O)[C@H]2O)[C@H](C)Cl)N(C)C1 [clindamycin, clindamycin hydrochloride, reference compound]
- MIC50 [7, 14]: 8 µg/mL
- MIC90 [7, 15]: 32 µg/mL
- MIC [7, 16]: 4 to 32 µg/mL

Compound: CCc1c(Cl)c(O)c(Cl)c(O)c1C(=O)O[C@H]1[C@H](O)[C@H](OC)[C@H](OC/C2=C\C=C\C[C@H](O)/C(C)=C/[C@H](CC)[C@@H](O[C@@H]3OC(C)(C)[C@@H](OC(=O)C(C)C)[C@H](O)[C@@H]3O)/C(C)=C/C(C)=C/C[C@@H]([C@@H](C)O)OC2=O)O[C@@H]1C [fidaxomicin, reference compound]
- MIC [7, 16]: 0.03 to 1 µg/mL (≈ 0.0284 to 0.945 µM)

Compound: C[C@@H](O)[C@H]1C(=O)N2C(C(=O)O)=C(SCCN=CN)C[C@H]12 [imipenem, imipenem monohydrate, reference compound]
- MIC ([3]; Escherichia coli): 0.06 to 16 µg/mL
- MIC50 [3, 12]: 0.12 µg/mL
- MIC90 [3, 13]: 4 µg/mL
- MIC50 [7, 14]: 8 µg/mL
- MIC90 [7, 15]: 16 µg/mL
- MIC [7, 16]: 2 to 16 µg/mL

Compound: CN[C@H](CC(C)C)C(=O)N[C@H]1C(=O)N[C@@H](CC(N)=O)C(=O)N[C@H]2C(=O)N[C@H]3C(=O)N[C@H](C(=O)N[C@H](C(=O)O)c4cc(O)cc(O)c4-c4cc3ccc4O)[C@H](O)c3ccc(c(Cl)c3)Oc3cc2cc(c3O[C@@H]2O[C@H](CO)[C@@H](O)[C@H](O)[C@H]2O[C@H]2C[C@](C)(N)[C@H](O)[C@H](C)O2)Oc2ccc(cc2Cl)[C@H]1O [vancomycin, vancomycin hydrochloride, reference compound]
- MIC range ([9]; S. aureus MDR clinical isolates (n = 10)): 1 to 4 µg/mL
- MIC50 ([9]; Staphylococcus aureus): 1 µg/mL
- MIC90 ([9]; Staphylococcus aureus): 2 µg/mL
- MIC50 ([1]; Enterococcus faecalis): > 64 µg/mL
- MIC90 ([1]; Enterococcus faecalis): > 64 µg/mL
- MIC50 ([2]; Enterococcus faecium): > 64 µg/mL
- MIC90 ([2]; Enterococcus faecium): > 64 µg/mL
- MIC ([2]; Enterococcus faecium): > 64 µg/mL
- MIC50 [7]: 2 µg/mL
- MIC90 [7]: 2 µg/mL
- MIC [7]: 1 to 2 µg/mL
